Series [1] concerns THP-1. In words: Cytotoxicity against human THP1 cells using cell count reagent SF. Format: cell-based.
For series [2], the system named is Staphylococcus aureus. Kind of series: Antimicrobial activity against Staphylococcus aureus FDA209P by CLSI method. It is filed as functional.
For series [3], the system named is THP-1. Kind of series: Immunomodulatory activity in human THP1 cells assessed as differentiation of monocyte to macrophage after 4 days by MTT assay. Format: functional. The conditions noted are these: THP-1, 96 h, read-out: ED50 (the source's name). On the technique in general: Tetrazolium dyes change colour on reduction, which living cells bring about.
Series [4] has as its system Staphylococcus aureus. In words: Antimicrobial activity against Staphylococcus aureus Smith by CLSI method. Format: functional.
Series [5] deals with Staphylococcus aureus. In words: Antimicrobial activity against Staphylococcus aureus 8325 (pEP2104) by CLSI method. It is filed as functional.
In series [6] the test system is Staphylococcus epidermidis. Kind of series: Antimicrobial activity against Staphylococcus epidermidis […] by CLSI method. It is filed as functional.
For series [7], the system named is Micrococcus luteus. Kind of series: Antimicrobial activity against Micrococcus luteus ATCC 9341 by CLSI method. Format: functional.
The subject of series [8] is Micrococcus luteus. In words: Antimicrobial activity against Micrococcus luteus ATCC 21212 by CLSI method. Format: functional.
The next series relates to Escherichia coli. Kind of series: Antimicrobial activity against Escherichia coli NIHJ JC-2 by CLSI method. Format: functional.
Another series has as its system Klebsiella pneumoniae. Kind of series: Antimicrobial activity against Klebsiella pneumoniae NCTN9632 by CLSI method. It is filed as functional.
For a further series, the system named is Serratia marcescens. In words: Antimicrobial activity against Serratia marcescens IFO12648 by CLSI method. Format: functional.
A further series concerns Klebsiella aerogenes. In words: Antimicrobial activity against Enterobacter aerogenes NCTC10006 by CLSI method. It is filed as functional.
Series [9] deals with Acinetobacter calcoaceticus. Kind of series: Antimicrobial activity against Acinetobacter calcoaceticus IFO2552 by CLSI method. It is filed as functional.

Values after ≈ are worked out from the molar mass of the structure shown. Some results are limits rather than exact numbers.

As for `CC[C@@H](O)[C@@](C)(O)[C@@H]1OC(=O)[C@H](C)[C@@H](O[C@H]2C[C@@](C)(OC)[C@@H](O)[C@H](C)O2)[C@H](C)[C@@H](O[C@@H]2O[C@H](C)C[C@H](N(C)C)[C@H]2O)[C@@]2(C)C[C@@H](C)[C@H](O2)[C@@H]1C`, in the series with THP-1 [1], the Activity came to 100 µM. Further, the MIC in the series on Staphylococcus aureus [2] was over 128 µg/mL; in the series on Staphylococcus aureus [4] it was over 128 µg/mL; in the series with Staphylococcus aureus [5], over 128 µg/mL; in [6] it was over 128 µg/mL; in the series on Micrococcus luteus [7] it was 128 µg/mL (≈ 178 µM); against Micrococcus luteus [8], over 128 µg/mL. For the same compound, the MIC (against Escherichia coli; with Klebsiella pneumoniae; in the series with Serratia marcescens; with Klebsiella aerogenes; in series [9]) was over 128 µg/mL in each case. The EC50 with THP-1 [3] came out at 17.1 µM.
Regarding `CO[C@]1(C)C[C@H](O[C@H]2[C@H](C)[C@@H](O[C@@H]3O[C@H](C)C[C@H](N(C)C)[C@H]3O)[C@@]3(C)C[C@@H](C)[C@H](O3)[C@H](C)[C@H](C(C)=O)OC(=O)[C@@H]2C)O[C@@H](C)[C@@H]1O`, in the series on THP-1 [1], the Activity came out at 100 µM. Moreover, the EC50 with THP-1 [3] was found to be 12.3 µM.
The corresponding values for `CO[C@]1(C)C[C@H](O[C@H]2[C@H](C)[C@@H](O[C@@H]3O[C@H](C)C[C@H](N(C)C)[C@H]3O)[C@@]3(C)C[C@@H](C)[C@H](O3)[C@H](C)[C@H](/C(C)=N/O)OC(=O)[C@@H]2C)O[C@@H](C)[C@@H]1O` are over 100 µM and 12.3 µM.
As to `CC[C@@H]1O[C@@]1(C)[C@@H]1OC(=O)[C@H](C)[C@@H](O[C@H]2C[C@@](C)(OC)[C@@H](O)[C@H](C)O2)[C@H](C)[C@@H](O[C@@H]2O[C@H](C)C[C@H](N(C)C)[C@H]2O)[C@@]2(C)C[C@@H](C)[C@H](O2)[C@@H]1C`, the Activity with THP-1 [1] stood at 100 µM. In addition, the EC50 in the series with THP-1 [3] was 10.2 µM.
The corresponding values for `CC[C@@H](OC(C)=O)[C@@](C)(O)[C@@H]1OC(=O)[C@H](C)[C@@H](O[C@H]2C[C@@](C)(OC)[C@@H](O)[C@H](C)O2)[C@H](C)[C@@H](O[C@@H]2O[C@H](C)C[C@H](N(C)C)[C@H]2O)[C@@]2(C)C[C@@H](C)[C@H](O2)[C@@H]1C` are 100 µM and 7.7 µM.
The corresponding values for `CC[C@@H](O)[C@@](C)(O)[C@@H]1OC(=O)[C@H](C)[C@@H](O[C@H]2C[C@@](C)(OC)[C@@H](O)[C@H](C)O2)[C@H](C)[C@@H](O[C@@H]2O[C@H](C)C[C@H](N(C)C)[C@H]2OC(C)=O)[C@@]2(C)C[C@@H](C)[C@H](O2)[C@@H]1C` are 100 µM and 16.1 µM.
For the compound `CC[C@@H](O)[C@@](C)(O)[C@@H]1OC(=O)[C@H](C)[C@@H](O)[C@H](C)[C@@H](O[C@@H]2O[C@H](C)C[C@H](N(C)C)[C@H]2OC(C)=O)[C@@]2(C)C[C@@H](C)[C@H](O2)[C@@H]1C`, the Activity in the series on THP-1 [1] was over 100 µM. For the same compound, the EC50 in the series with THP-1 [3] was over 100 µM.
Compound `CC[C@H]1OC(=O)O[C@@]1(C)[C@@H]1OC(=O)[C@H](C)[C@@H](O)[C@H](C)[C@@H](O[C@@H]2O[C@H](C)C[C@H](N(C)C)[C@H]2OC(C)=O)[C@@]2(C)C[C@@H](C)[C@H](O2)[C@@H]1C` yielded an Activity in the series with THP-1 [1] of over 100 µM. For the same compound, the EC50 in the series on THP-1 [3] was 55.7 µM.
On the same counts, the results for `CC[C@H]1OC(=O)O[C@@]1(C)[C@@H]1OC(=O)[C@H](C)C(=O)[C@H](C)[C@@H](O[C@@H]2O[C@H](C)C[C@H](N(C)C)[C@H]2OC(C)=O)[C@@]2(C)C[C@@H](C)[C@H](O2)[C@@H]1C` are over 100 µM and 27.9 µM.
Take `CC[C@H]1OC(=O)O[C@@]1(C)[C@@H]1OC(=O)[C@H](C)C(=O)[C@H](C)[C@@H](O[C@@H]2O[C@H](C)C[C@H](N(C)C)[C@H]2O)[C@@]2(C)C[C@@H](C)[C@H](O2)[C@@H]1C`: the Activity in the series on THP-1 [1] is over 100 µM. Also, the EC50 in the series with THP-1 [3] was found to be 26.3 µM.
With `CC[C@H]1OC(=O)[C@H](C)[C@@H](O[C@H]2C[C@@](C)(OC)[C@@H](O)[C@H](C)O2)[C@H](C)[C@@H](O[C@@H]2O[C@H](C)C[C@H](N(C)C)[C@H]2O)[C@](C)(O)C[C@@H](C)C(=O)[C@H](C)[C@@H](O)[C@]1(C)O` [ERYTHROMYCIN], the minimum inhibitory concentration (MIC) was at most 0.5 µg/mL in the series on Staphylococcus aureus [2]; at most 0.5 µg/mL in the series on Staphylococcus aureus [4]; 64 µg/mL (≈ 87.2 µM) in the series with Staphylococcus aureus [5]; at most 0.5 µg/mL in [6]; at most 0.5 µg/mL against Micrococcus luteus [7]; 1 µg/mL (≈ 1.36 µM) against Micrococcus luteus [8]. In addition, the MIC was 64 µg/mL (≈ 87.2 µM) in the series on Escherichia coli; 32 µg/mL (≈ 43.6 µM) in the series with Klebsiella pneumoniae; 128 µg/mL (≈ 174 µM) in the series on Serratia marcescens; 128 µg/mL (≈ 174 µM) with Klebsiella aerogenes; 4 µg/mL (≈ 5.45 µM) in series [9].

By MIC is commonly meant the lowest concentration that inhibits growth of the organism.

The record behind these values is ChEMBL document CHEMBL1777670, “Novel 12-membered non-antibiotic macrolides from erythromycin A; EM900 series as novel leads for anti-inflammatory and/or immunomodulatory agents” (Bioorg Med Chem Lett, 2011).
